From paper PMC5865166, “MultiBacMam Bimolecular Fluorescence Complementation (BiFC) tool-kit identifies new small-molecule inhibitors of the CDK5-p25 protein-protein interaction (PPI)” (Scientific Reports, 2018)

Columns and labels:
CDK5-p25 PPI = target: T1, CDK5-p25 PPI (Homo sapiens, UniProt Q00535+Q15078, D144N); test: MultiBacMam BiFC assay of CDK5-p25 PPI in transduced U2OS cells (VN-CDK5(D144N)/VC-p25); conditions: mammalian cell-based BiFC assay, versus published yeast-based data
T1 construct: The cleavage of p35 by the protease calpain generates p25; expressed in transfected cells; host or cells: U2OS cells transduced with MultiBacMam baculovirus
T1 sequence (Q00535 whole entry D144N): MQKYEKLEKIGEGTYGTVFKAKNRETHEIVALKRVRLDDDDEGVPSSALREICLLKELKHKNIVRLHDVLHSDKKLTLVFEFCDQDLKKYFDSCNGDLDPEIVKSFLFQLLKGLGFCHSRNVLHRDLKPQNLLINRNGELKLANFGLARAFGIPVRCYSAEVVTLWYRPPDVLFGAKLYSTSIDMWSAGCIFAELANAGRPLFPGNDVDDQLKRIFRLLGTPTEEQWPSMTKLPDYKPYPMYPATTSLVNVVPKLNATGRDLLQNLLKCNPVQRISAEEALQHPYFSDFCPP
T1 sequence (Q15078 99-307 limits assumed): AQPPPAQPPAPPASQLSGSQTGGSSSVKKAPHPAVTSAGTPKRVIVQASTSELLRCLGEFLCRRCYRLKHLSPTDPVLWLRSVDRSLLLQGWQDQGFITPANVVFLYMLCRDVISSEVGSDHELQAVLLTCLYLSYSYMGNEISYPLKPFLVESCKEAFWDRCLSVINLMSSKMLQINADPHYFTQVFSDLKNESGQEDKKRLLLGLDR
Procedure: (§1) Experiments were carried out in sterile, black clear-bottom 384 well plates (Cell carrier™ Perkin Elmer). U2OS cells were seed at density of cells 5 × 10^4 cells/well. After 3 hours, attached cells were transduced with 20 µl/well of viral stock dilution in PBS (Gibco) at multiplicity of infection (MOI) of 500 MOI. After were centrifuged during 30′ at 1500 rpm. Then plates were incubated at 37 °C during 5 hours. Thereafter the virus solution was replaced with 40 ul of complete growth medium containing 3 mM sodium butyrate (ABCR) with or without compound depending of the experiment. Cells were incubated for 16 hours at 37 °C with 5% of CO2. Finally plates were fixed with 4% paraformaldehyde (PFA) and stained with 5 µM Hoechst 33342 (Sigma-Aldrich). After 10 minutes of incubation at room temperature, plates were washed with PBS (GiBCO) and stored at 4 °C until imaging. For the immunostaining against p25 cells were permeabilized and stained with PBS, BSA 0.2% and Triton-X 100 0.5% and p35 (C-19) antibody from Santa Cruz Biotechnology (diluted 1:100 and incubated at 4 °C o/n). […]
(§2) Cells were transduced or transfected and fixed as described above. Cells were stored in PBS until automated fluorescence microscopy analysis with Opera. Fluorescence images were acquired using the Opera QEHS reader (Perkin-Elmer) using a 20x objective. […]

U2OS cells = test: Total cell number / cytotoxicity in BiFC experiments; type: cell-based; conditions: prohibited increasing the compound concentration to above 13 µM
Procedure: Experiments were carried out in sterile, black clear-bottom 384 well plates (Cell carrier™ Perkin Elmer). U2OS cells were seed at density of cells 5 × 10^4 cells/well. After 3 hours, attached cells were transduced with 20 µl/well of viral stock dilution in PBS (Gibco) at multiplicity of infection (MOI) of 500 MOI. After were centrifuged during 30′ at 1500 rpm. Then plates were incubated at 37 °C during 5 hours. Thereafter the virus solution was replaced with 40 ul of complete growth medium containing 3 mM sodium butyrate (ABCR) with or without compound depending of the experiment. Cells were incubated for 16 hours at 37 °C with 5% of CO2. Finally plates were fixed with 4% paraformaldehyde (PFA) and stained with 5 µM Hoechst 33342 (Sigma-Aldrich). After 10 minutes of incubation at room temperature, plates were washed with PBS (GiBCO) and stored at 4 °C until imaging. For the immunostaining against p25 cells were permeabilized and stained with PBS, BSA 0.2% and Triton-X 100 0.5% and p35 (C-19) antibody from Santa Cruz Biotechnology (diluted 1:100 and incubated at 4 °C o/n). Then, the plates were incubated for 2 hrs at 37 °C with a donkey anti-rabbit conjugated with the alexa fluor 647 secondary antibody (Invitrogen). Finally plates were washed with PBS and stored at 4 °C until imaging.
Supplementary Figure S2. Total cell number in BiFC experiments. […]

MLKL-RIPK3 PPI = target: T2, MLKL-RIPK3 PPI (Homo sapiens, UniProt Q8NB16+Q9Y572); test: MLKL-RIPK3 BiFC counter assay in transduced U2OS cells (VN-MLKL/VC-RIPK3); type: cell-based; conditions: counter screen, 16h treatment; CPDs even at high concentration
T2 construct: expressed in transfected cells; host or cells: U2OS cells transduced with MultiBacMam baculovirus
T2 sequence (Q8NB16 whole entry): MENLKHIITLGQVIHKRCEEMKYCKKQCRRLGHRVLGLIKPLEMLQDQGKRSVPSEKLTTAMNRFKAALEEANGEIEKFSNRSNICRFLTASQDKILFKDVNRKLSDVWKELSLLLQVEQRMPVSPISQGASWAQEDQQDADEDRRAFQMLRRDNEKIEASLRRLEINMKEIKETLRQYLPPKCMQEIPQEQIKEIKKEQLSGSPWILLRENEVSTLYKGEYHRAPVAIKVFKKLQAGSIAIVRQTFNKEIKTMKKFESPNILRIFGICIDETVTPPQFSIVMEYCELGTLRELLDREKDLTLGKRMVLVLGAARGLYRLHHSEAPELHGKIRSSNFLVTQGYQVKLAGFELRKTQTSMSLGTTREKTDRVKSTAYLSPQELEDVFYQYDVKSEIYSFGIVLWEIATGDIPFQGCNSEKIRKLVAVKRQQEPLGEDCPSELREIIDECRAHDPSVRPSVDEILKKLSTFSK
T2 sequence (Q9Y572 whole entry): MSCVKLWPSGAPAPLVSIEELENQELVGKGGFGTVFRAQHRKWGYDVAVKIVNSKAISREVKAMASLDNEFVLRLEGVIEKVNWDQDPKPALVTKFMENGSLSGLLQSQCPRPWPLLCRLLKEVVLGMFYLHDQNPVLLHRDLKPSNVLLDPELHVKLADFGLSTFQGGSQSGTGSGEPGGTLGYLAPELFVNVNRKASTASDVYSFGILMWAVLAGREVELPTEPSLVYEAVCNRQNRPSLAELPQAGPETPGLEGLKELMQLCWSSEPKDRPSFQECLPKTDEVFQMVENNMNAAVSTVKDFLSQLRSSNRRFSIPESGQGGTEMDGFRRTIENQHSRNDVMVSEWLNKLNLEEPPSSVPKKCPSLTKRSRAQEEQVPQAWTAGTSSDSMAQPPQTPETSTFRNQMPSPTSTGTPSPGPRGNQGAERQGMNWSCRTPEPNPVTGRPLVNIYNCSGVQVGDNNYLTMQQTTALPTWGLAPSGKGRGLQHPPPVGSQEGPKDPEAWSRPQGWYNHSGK
Procedure: as §1, with “imaging.” for “imaging. For the immunostaining against p25 cells were permeabilized and stained with PBS, BSA 0.2% and Triton-X 100 0.5% and p35 (C-19) antibody from Santa Cruz Biotechnology (diluted 1:100 and incubated at 4 °C o/n).”
as §2
(§3) Supplementary Figure S3. […] Then cells were treated with indicated amounts of compounds for 16h and percentage of BiFC positive cells was determined by High Content image analysis.

Tau dimerization = test: Tau BiFC counter assay in transduced U2OS cells (VN-TAU/VC-TAU); type: cell-based; conditions: counter screen, 16h treatment; CPDs even at high concentration
Procedure: as §1, with “imaging.” for “imaging. For the immunostaining against p25 cells were permeabilized and stained with PBS, BSA 0.2% and Triton-X 100 0.5% and p35 (C-19) antibody from Santa Cruz Biotechnology (diluted 1:100 and incubated at 4 °C o/n).”
as §2, §3

Structure (SMILES) | inhibitory effect on CDK5-p25 PPI (CDK5-p25 PPI) | toxic effect on the cells (U2OS cells) | effect on MLKL-RIPK3 PPI (MLKL-RIPK3 PPI) | effect on Tau dimerization (Tau dimerization)
C[C@@]12CCC[C@H]1[C@@H]1CC[C@H]3C[C@H](N)CC[C@]3(C)[C@H]1CC2 [3α-amino-5α-androstane] | did not reproduce this published data | toxic effect | – | –
CC(C)CC(=O)Nc1[nH]nc2c1CN(C(=O)C1CCN(C)CC1)C2(C)C [pHA-793887] | – | – | non-specific fluorescence complementation inhibitor | non-specific fluorescence complementation inhibitor
